Target: T1, LigA (Deinococcus radiodurans, UniProt Q9RSQ5)
T1 construct: full-length, N-terminal hexahistidine tag (pRSETb, kept), E. coli BL21(DE3)
Test: adenylyltransferase assay, SDS-PAGE autoradiography
Format: biochemical
Details: 0.1 μM [32P]-NAD+, 1 mM MnCl2, pH 6.8, 30 °C; covalent AMP adduct; labelled compound

NC(=O)c1ccc[n+]([C@@H]2O[C@H](COP(=O)(O)OP(=O)(O)OC[C@H]3O[C@@H](n4cnc5c(N)ncnc54)[C@H](O)[C@@H]3O)[C@@H](O)[C@H]2O)c1 [NAD^+]
adenylyltransferase assay, SDS-PAGE autoradiography: in an adenylyltransferase activity assay LigA wt formed an AMP-ligase complex
